The compounds below were run on Wnt (assay: Wnt reporter screening assay: SW480 cells stably transduced with SP5 promoter-firefly luciferase lentiviral construct). Conditions: Homo sapiens, SW480 colon cancer cells, 24 h after compound addition, normalized to DMSO, read-out: Wnt inhibition, IC50.
Format: cell-based
From the text: Another screening assay for Wnt activity is described as follows. Reporter cell lines can be generated by stably transducing cells of cancer cell lines (e.g., colon cancer) with a lentiviral construct that include a wnt-responsive promoter driving expression of the firefly luciferase gene.
Lentiviral constructs can be made in which the SP5 promoter, a promoter having eight TCF/LEF binding sites derived from the SP5 promoter, is linked upstream of the firefly luciferase gene. The lentiviral constructs can also include a hygromycin resistance gene as a selectable marker. The SP5 promoter construct can be used to transduce SW480 cells, a colon cancer cell line having a mutated APC gene that generates a truncated APC protein, leading to de-regulated accumulation of β-catenin.
Cultured SW480 cells bearing a reporter construct can be distributed at approximately 10,000 cells per well into 384 well multiwell plates. Compounds from a small molecule compound library can then be added to the wells in half-log dilutions using a three micromolar top concentration. A series of control wells for each cell type receive only buffer and compound solvent. Twenty-four hours after the addition of compound, reporter activity for luciferases can be assayed, for example, by addition of the BrightGlo luminescence reagent (Promega) and the Victor3 plate reader (Perkin Elmer). Readings can be normalized to DMSO only treated cells, and normalized activities can then be used in the IC50 calculations.

Structure (SMILES) | IC50 [nM]
O=C(Nc1cncc(-c2ccc3[nH]nc(-c4nc5c(-c6cccnc6)cncc5[nH]4)c3c2)c1)C1CC1 [Compound 12, N-(5-(3-(7-(pyridin-3-yl)-3H-imidazo[4,5-c]pyridin-2-yl)-1H-indazol-5-yl)pyridin-3-yl)cyclopropanecarboxamide] | 26 to 35
O=C(NC1CCNCC1)c1cncc(-c2ccc3[nH]nc(-c4nc5ccncc5[nH]4)c3c2)c1 [Compound 1, 5-(3-(3H-imidazo[4,5-c]pyridin-2-yl)-1H-indazol-5-yl)-N-(piperidin-4-yl)nicotinamide] | > 10000
CC(C)C(=O)Nc1cncc(-c2ccc3[nH]nc(-c4nc5c(-c6cccnc6)cncc5[nH]4)c3c2)c1 [Compound 11, N-(5-(3-(7-(pyridin-3-yl)-3H-imidazo[4,5-c]pyridin-2-yl)-1H-indazol-5-yl)pyridin-3-yl)isobutyramide] | 4
O=C(NCC1CC1)c1cncc(-c2ccc3[nH]nc(-c4nc5c(-c6cccnc6)cncc5[nH]4)c3c2)c1 [Compound 3, N-(cyclopropylmethyl)-5-(3-(7-(pyridin-3-yl)-3H-imidazo[4,5-c]pyridin-2-yl)-1H-indazol-5-yl)nicotinamide] | > 10000
O=C(Nc1cncc(-c2ccc3[nH]nc(-c4nc5c(-c6cccnc6)cncc5[nH]4)c3c2)c1)C1CCCCC1 [Compound 19, N-(5-(3-(7-(pyridin-3-yl)-3H-imidazo[4,5-c]pyridin-2-yl)-1H-indazol-5-yl)pyridin-3-yl)cyclohexanecarboxamide] | 86 to 206
CC(C)(C)C(=O)Nc1cncc(-c2ccc3[nH]nc(-c4nc5c(-c6cccnc6)cncc5[nH]4)c3c2)c1 [Compound 17, N-(5-(3-(7-(pyridin-3-yl)-3H-imidazo[4,5-c]pyridin-2-yl)-1H-indazol-5-yl)pyridin-3-yl)pivalamide] | 32 to 50
CCC(=O)Nc1cncc(-c2ccc3[nH]nc(-c4nc5c(-c6cccnc6)cncc5[nH]4)c3c2)c1 [Compound 4, N-(5-(3-(7-(pyridin-3-yl)-3H-imidazo[4,5-c]pyridin-2-yl)-1H-indazol-5-yl)pyridin-3-yl)propionamide] | 29 to 50
CCCCC(=O)Nc1cncc(-c2ccc3[nH]nc(-c4nc5c(-c6cccnc6)cncc5[nH]4)c3c2)c1 [Compound 23, N-(5-(3-(7-(pyridin-3-yl)-3H-imidazo[4,5-c]pyridin-2-yl)-1H-indazol-5-yl)pyridin-3-yl)pentanamide] | 34 to 64
O=C(Nc1cncc(-c2ccc3[nH]nc(-c4nc5c(-c6cccnc6)cncc5[nH]4)c3c2)c1)C1CCC1 [Compound 21, N-(5-(3-(7-(pyridin-3-yl)-3H-imidazo[4,5-c]pyridin-2-yl)-1H-indazol-5-yl)pyridin-3-yl)cyclobutanecarboxamide] | 29
CC(C)(C)CC(=O)Nc1cncc(-c2ccc3[nH]nc(-c4nc5c(-c6cccnc6)cncc5[nH]4)c3c2)c1 [Compound 18, 3,3-dimethyl-N-(5-(3-(7-(pyridin-3-yl)-3H-imidazo[4,5-c]pyridin-2-yl)-1H-indazol-5-yl)pyridin-3-yl)butanamide] | 21 to 39
CCCC(=O)Nc1cncc(-c2ccc3[nH]nc(-c4nc5c(-c6cccnc6)cncc5[nH]4)c3c2)c1 [Compound 20, N-(5-(3-(7-(pyridin-3-yl)-3H-imidazo[4,5-c]pyridin-2-yl)-1H-indazol-5-yl)pyridin-3-yl)butyramide] | 63
CC(C)CC(=O)Nc1cncc(-c2ccc3[nH]nc(-c4nc5c(-c6cccnc6)cncc5[nH]4)c3c2)c1 [Compound 15, 3-methyl-N-(5-(3-(7-(pyridin-3-yl)-3H-imidazo[4,5-c]pyridin-2-yl)-1H-indazol-5-yl)pyridin-3-yl)butanamide] | 5.6
O=C(NCC1CCCCC1)c1cncc(-c2ccc3[nH]nc(-c4nc5ccncc5[nH]4)c3c2)c1 [Compound 2, 5-(3-(3H-imidazo[4,5-c]pyridin-2-yl)-1H-indazol-5-yl)-N-(cyclohexylmethyl)nicotinamide] | > 10000
O=C(Nc1cncc(-c2ccc3[nH]nc(-c4nc5c(-c6cccnc6)cncc5[nH]4)c3c2)c1)c1ccccc1 [Compound 16, N-(5-(3-(7-(pyridin-3-yl)-3H-imidazo[4,5-c]pyridin-2-yl)-1H-indazol-5-yl)pyridin-3-yl)benzamide] | 380 to 1170
